From patent EP1914230B1 (The Arizona Board of Regents on behalf of the University of …, priority 2001, dated 2003)

Tests used:
C57BL6 mice = conditions: relative to wortmannin as 1.0; for Liver toxicity relative to wortmannic: mean percent increase in serum ALT and AST at the MTD or highest dose tested; for Lymphocyte toxicity relative to wortmannin: percent decrease in lymphocyte counts at the MTD or highest dose tested
Excerpt: (§1) Highlighted are the compounds being made for antitumor testing.

[1] = biological target: phosphatidylinositol-3-kinase; assay: PI-3 kinase inhibition; type: biochemical
Excerpt: as §1

Row | SMILES | Liver toxicity relative to wortmannic (C57BL6 mice) | Lymphocyte toxicity relative to wortmannin (C57BL6 mice) | IC50 [1]
1 | COC[C@H]1OC(=O)/C(=C/SCc2ccccc2)C2=C(O)C(=O)C3=C([C@H](OC(C)=O)C[C@]4(C)C(=O)CC[C@@H]34)[C@]21C [DJM2-170] | 1.7 | 1.1 | 
2 | COC[C@H]1OC(=O)/C(=C/NC(C)C(=O)O)C2=C(O)C(=O)C3=C([C@H](OC(C)=O)C[C@]4(C)C(=O)CC[C@@H]34)[C@]21C (stereo partly drawn) [DJM2-177] | 0.2 | 2.0 | 
3 | COC[C@H]1OC(=O)/C(=C/NCC(N)=O)C2=C(O)C(=O)C3=C([C@H](OC(C)=O)C[C@]4(C)C(=O)CC[C@@H]34)[C@]21C [DJM2-190] |  | 0.6 | 
4 | COC[C@H]1OC(=O)c2coc3c2[C@@]1(C)C1=C(C3=O)[C@@H]2CCC(=O)[C@@]2(C)C[C@H]1OC(C)=O [wortmannin] |  |  | 0.3 nM
